Among the data in patent US10301306B2, “Substituted dihydro-1H-pyrrolo[3,2-c]pyridin-4(5H)-ones as RIPK3 inhibitors” (BRISTOL-MYERS SQUIBB COMPANY, priority 2014, dated 2019) are IC50 values, retold here.

A value given as a limit tells only on which side of the number the result lay.

RIPK3, sequence (Q9Y572 whole entry, species assumed): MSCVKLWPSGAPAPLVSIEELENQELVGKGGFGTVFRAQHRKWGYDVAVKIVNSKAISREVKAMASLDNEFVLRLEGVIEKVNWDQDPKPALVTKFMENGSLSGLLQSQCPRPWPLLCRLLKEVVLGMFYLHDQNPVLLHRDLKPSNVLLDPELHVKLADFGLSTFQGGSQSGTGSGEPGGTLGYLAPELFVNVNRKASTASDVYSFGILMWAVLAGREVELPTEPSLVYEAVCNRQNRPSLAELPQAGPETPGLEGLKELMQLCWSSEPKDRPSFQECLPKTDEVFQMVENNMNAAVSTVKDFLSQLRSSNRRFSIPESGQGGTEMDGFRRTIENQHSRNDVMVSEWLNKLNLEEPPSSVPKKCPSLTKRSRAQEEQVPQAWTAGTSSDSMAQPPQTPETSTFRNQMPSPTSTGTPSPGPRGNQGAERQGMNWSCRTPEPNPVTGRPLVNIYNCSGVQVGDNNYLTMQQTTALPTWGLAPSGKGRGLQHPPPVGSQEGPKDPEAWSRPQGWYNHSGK

One assay has as its target RIPK3 (Homo sapiens (Human), UniProt Q9Y572). Kind of assay: RIPK3 HTRF Kinase Assay. Format: binding. To be noted: RIPK3 1 nM; HTRF probe 23 nM; 60 min at room temperature; read-out: IC50 for Inhibition of RIPK3. In general terms: In TR-FRET formats the signal depends on donor and acceptor labels being close together.
In the case of `Cc1n[nH]cc1-c1c(-c2ccc(F)cc2)c2c(n1Cc1ccc(F)cc1C#N)CCNC2=O` [Example 1, 5-Fluoro-2-((3-(4-fluorophenyl)-2-(3-methyl-1H-pyrazol-4-yl)-4-oxo-4,5,6,7-tetrahydro-1H-pyrrolo[3,2-c]pyridin-1-yl)methyl)benzonitrile], the IC50 (in general, the concentration at which inhibition is half-maximal) was 100 to 15000 nM.

For `N#Cc1cccc(Cn2c3c(c(-c4ccc(F)cc4)c2-c2ccncc2)C(=O)NCC3)c1` [Example 2, 3-((3-(4-Fluorophenyl)-4-oxo-2-(pyridin-4-yl)-4,5,6,7-tetrahydro-1H-pyrrolo[3,2-c]pyridin-1-yl)methyl)benzonitrile], the IC50 was under 30 nM.

For `CC(=O)Nc1cc(-c2c(-c3ccc(F)cc3)c3c(n2CC2CCOCC2)CCNC3=O)ccn1` [Example 3, N-(4-(3-(4-Fluorophenyl)-4-oxo-1-((tetrahydro-2H-pyran-4-yl)methyl)-4,5,6,7-tetrahydro-1H-pyrrolo[3,2-c]pyridin-2-yl)pyridin-2-yl)acetamide], the IC50 was 100 to 15000 nM.

`CC(=O)Nc1cc(-c2c(-c3ccc(F)cc3)c3c(n2Cc2ccc(C)cc2)CCNC3=O)ccn1` [Example 4, N-(4-(3-(4-Fluorophenyl)-1-(4-methylbenzyl)-4-oxo-4,5,6,7-tetrahydro-1H-pyrrolo[3,2-c]pyridin-2-yl)pyridin-2-yl)acetamide]: the IC50 was under 30 nM.

In the case of `O=C1NCCc2c1c(-c1cccc(-c3ccccc3)c1)c(-c1ccncc1)n2CC1CCOCC1` [Example 5, 3-([1,1′-Biphenyl]-3-yl)-2-(pyridin-4-yl)-1-((tetrahydro-2H-pyran-4-yl)methyl)-6,7-dihydro-1H-pyrrolo[3,2-c]pyridin-4(5H)-one], the IC50 lay in the range of 100 to 15000 nM.

As to `O=C1NCCc2c1c(-c1ccc(F)cc1)c(-c1ccnc(Cl)c1)n2Cc1ccc(C(F)(F)F)cc1F` [Example 6, 2-(2-Chloropyridin-4-yl)-1-(2-fluoro-4-(trifluoromethyl)benzyl)-3-(4-fluorophenyl)-6,7-dihydro-1H-pyrrolo[3,2-c]pyridin-4(5H)-one], the IC50 fell in the range of 100 to 15000 nM.

`CC(C)C(=O)Nc1cc(-c2c(-c3ccc(F)cc3)c3c(n2Cc2ccc(C(F)(F)F)cc2F)CCNC3=O)ccn1` [Example 7, N-(4-(1-(2-Fluoro-4-(trifluoromethyl)benzyl)-3-(4-fluorophenyl)-4-oxo-4,5,6,7-tetrahydro-1H-pyrrolo[3,2-c]pyridin-2-yl)pyridin-2-yl)isobutyramide]: the IC50 lay in the range of 100 to 15000 nM.

On to `O=C1NCCc2c1c(-c1ccc(F)cc1)c(-c1ccnc(NC(=O)C3CC3)c1)n2Cc1ccc(C(F)(F)F)cc1F` [Example 8, N-(4-(1-(2-Fluoro-4-(trifluoromethyl)benzyl)-3-(4-fluorophenyl)-4-oxo-4,5,6,7-tetrahydro-1H-pyrrolo[3,2-c]pyridin-2-yl)pyridin-2-yl)cyclopropanecarboxamide], for which the IC50 is under 30 nM.

In the case of `N#Cc1cc(F)ccc1Cn1c2c(c(-c3ccc(C(F)(F)F)cc3)c1-c1ccncc1)C(=O)NCC2` [Example 9, 5-Fluoro-2-((4-oxo-2-(pyridin-4-yl)-3-(4-(trifluoromethyl)phenyl)-4,5,6,7-tetrahydro-1H-pyrrolo[3,2-c]pyridin-1-yl)methyl)benzonitrile], the IC50 was in the range of 31 to 100 nM.

`CNc1cc(-c2c(-c3ccc(F)cc3)c3c(n2Cc2ccc(C(F)(F)F)cc2F)CCNC3=O)ccn1` [Example 10]: the 50% inhibitory concentration (IC50) lay within 100 to 15000 nM.

For `N#Cc1cc(F)ccc1Cn1c2c(c(-c3cccnc3)c1-c1ccnc(Cl)c1)C(=O)NCC2` [Example 11, 2-((2-(2-Chloropyridin-4-yl)-4-oxo-3-(pyridin-3-yl)-4,5,6,7-tetrahydro-1H-pyrrolo[3,2-c]pyridin-1-yl)methyl)-5-fluorobenzonitrile], the IC50 was in the range of 100 to 15000 nM.

As for `Nc1cc(-c2c(-c3ccc(F)cc3)c3c(n2Cc2ccc(C(F)(F)F)cc2F)CCNC3=O)ccn1` [Example 12, 2-(2-Aminopyridin-4-yl)-1-(2-fluoro-4-(trifluoromethyl)benzyl)-3-(4-fluorophenyl)-6,7-dihydro-1H-pyrrolo[3,2-c]pyridin-4(5H)-one], the 50% inhibitory concentration (IC50) was 100 to 15000 nM.

Consider `Cc1noc(-c2ccc(Cn3c4c(c(-c5ccc(F)cc5)c3-c3ccncc3)C(=O)NCC4)cc2)n1` [Example 13, 3-(4-Fluorophenyl)-1-(4-(3-methyl-1,2,4-oxadiazol-5-yl)benzyl)-2-(pyridin-4-yl)-6,7-dihydro-1H-pyrrolo[3,2-c]pyridin-4(5H)-one], for which the IC50 was under 30 nM.

For the molecule `N#Cc1cc(F)ccc1Cn1c2c(c(-c3cccs3)c1-c1ccncc1)C(=O)NCC2` [Example 14, 5-Fluoro-2-((4-oxo-2-(pyridin-4-yl)-3-(thiophen-2-yl)-4,5,6,7-tetrahydro-1H-pyrrolo[3,2-c]pyridin-1-yl)methyl)benzonitrile], the half-inhibitory concentration (IC50) is under 30 nM.

On to `COc1cnccc1-c1c(-c2ccc(F)cc2)c2c(n1Cc1ccc(F)cc1C#N)CCNC2=O` [Example 15], for which the IC50 was in the range of 31 to 100 nM.

As to `N#Cc1cc(F)ccc1Cn1c2c(c(-c3ccc(F)cc3)c1-c1ccnc(C(F)(F)F)c1)C(=O)NCC2` [Example 16], the IC50 fell in the range of 100 to 15000 nM.

Take `N#Cc1cc(F)ccc1Cn1c2c(c(-c3ccc(F)cc3)c1-c1cncnc1)C(=O)NCC2` [Example 17]: the IC50 was 100 to 15000 nM.

With `N#Cc1cc(F)ccc1Cn1c2c(c(-c3ccc(F)cc3)c1-c1ccc3[nH]ccc3c1)C(=O)NCC2` [Example 19], the IC50 was 100 to 15000 nM.

Regarding `Cc1cc(-c2c(-c3ccc(F)cc3)c3c(n2Cc2ccc(F)cc2C#N)CCNC3=O)ccn1` [Example 20], the IC50 was 31 to 100 nM.

As for `CC(=O)Nc1cccc(-c2c(-c3ccc(F)cc3)c3c(n2Cc2ccc(F)cc2C#N)CCNC3=O)c1` [Example 21], the IC50 was 100 to 15000 nM.

As for `N#Cc1cc(F)ccc1Cn1c2c(c(-c3ccc(F)cc3)c1-c1ccnc(Cl)c1)C(=O)NCC2` [Example 22], the IC50 lay in the range of 100 to 15000 nM.

Consider `N#Cc1cc(F)ccc1Cn1c2c(c(-c3ccc(F)cc3)c1-c1ccoc1)C(=O)NCC2` [Example 23], for which the IC50 was in the range of 100 to 15000 nM.

In the case of `Cn1cc(-c2c(-c3ccc(F)cc3)c3c(n2Cc2ccc(F)cc2C#N)CCNC3=O)cn1` [Example 24], the IC50 was in the range of 100 to 15000 nM.

With `N#Cc1cc(F)ccc1Cn1c2c(c(-c3ccc(F)cc3)c1-c1ccsc1)C(=O)NCC2` [Example 25], the IC50 is 100 to 15000 nM.

On to `COc1ncc(-c2c(-c3ccc(F)cc3)c3c(n2Cc2ccc(F)cc2C#N)CCNC3=O)cn1` [Example 26], for which the IC50 fell in the range of 100 to 15000 nM.

`N#Cc1cc(F)ccc1Cn1c2c(c(-c3ccc(F)cc3)c1-c1ccncc1F)C(=O)NCC2` [Example 27]: the IC50 is under 30 nM.

`N#Cc1ccc(Cn2c3c(c(-c4ccc(F)cc4)c2-c2ccncc2)C(=O)NCC3)cc1` [Example 28]: the IC50 is 31 to 100 nM.

In the case of `O=C1NCCc2c1c(-c1ccc(F)cc1)c(-c1ccncc1)n2CC1CCNCC1` [Example 30], the IC50 lay in the range of 100 to 15000 nM.

For `O=C1NCCc2c1c(-c1ccc(F)cc1)c(-c1ccncc1)n2CC1CCOCC1` [Example 31], the half-inhibitory concentration (IC50) is 100 to 15000 nM.

Regarding `O=C1NCCc2c1c(-c1ccc(F)cc1)c(-c1ccncc1)n2Cc1ccc(C(F)(F)F)cc1` [Example 33], the IC50 lay within 31 to 100 nM.

For the molecule `N#Cc1cc(F)ccc1Cn1c2c(c(-c3ccc(F)cc3)c1-c1ccncc1)C(=O)NCC2` [Example 34], the IC50 was under 30 nM.

For the molecule `N#Cc1ccc(Cn2c3c(c(-c4ccc(F)cc4)c2-c2ccncc2)C(=O)NCC3)cc1F` [Example 35], the IC50 is 31 to 100 nM.

As to `CC(c1ccccc1)n1c2c(c(-c3ccc(F)cc3)c1-c1ccncc1)C(=O)NCC2` (stereo not shown) [Example 36], the IC50 was 100 to 15000 nM.

In the case of `COc1ccc(CCn2c3c(c(-c4ccc(F)cc4)c2-c2ccncc2)C(=O)NCC3)cc1` [Example 37], the IC50 is 100 to 15000 nM.

On to `COc1ccc(Cn2c3c(c(-c4ccc(F)cc4)c2-c2ccncc2)C(=O)NCC3)cc1` [Example 38], for which the IC50 was under 30 nM.

In the case of `O=C1NCCc2c1c(-c1ccc(F)cc1)c(-c1ccncc1)n2Cc1ccc(OC(F)(F)F)c(Cl)c1` [Example 40], the half-maximal inhibitory concentration (IC50) was in the range of 100 to 15000 nM.

For the molecule `O=C1NCCc2c1c(-c1ccc(F)cc1)c(-c1ccncc1)n2Cc1cc(F)cc(C(F)(F)F)c1` [Example 41], the IC50 was under 30 nM.

For `CS(=O)(=O)c1ccc(Cn2c3c(c(-c4ccc(F)cc4)c2-c2ccncc2)C(=O)NCC3)cc1` [Example 42], the IC50 lay within 100 to 15000 nM.

For `O=C1NCCc2c1c(-c1ccc(F)cc1)c(-c1ccncc1)n2Cc1ccc(C(F)(F)F)cc1F` [Example 43], the IC50 is under 30 nM.

As to `O=C1NCCc2c1c(-c1ccc(F)cc1)c(-c1ccncc1)n2Cc1ccc(F)cc1` [Example 44], the IC50 was under 30 nM.

As for `Cc1cc(Cn2c3c(c(-c4ccc(F)cc4)c2-c2ccncc2)C(=O)NCC3)ccc1F` [Example 46], the IC50 is under 30 nM.

For the molecule `O=C1NCCc2c1c(-c1ccc(F)cc1)c(-c1ccncc1)n2Cc1nnc(C2CC2)s1` [Example 47], the IC50 is 100 to 15000 nM.

For `Cc1nc(-c2ccc(Cn3c4c(c(-c5ccc(F)cc5)c3-c3ccncc3)C(=O)NCC4)c(F)c2)no1` [Example 48], the IC50 was under 30 nM.

For `N#CCn1c2c(c(-c3ccc(F)cc3)c1-c1ccncc1)C(=O)NCC2` [Example 49], the half-maximal inhibitory concentration (IC50) was in the range of 100 to 15000 nM.

In the case of `Cc1noc(C)c1Cn1c2c(c(-c3ccc(F)cc3)c1-c1ccncc1)C(=O)NCC2` [Example 50], the IC50 lay within 100 to 15000 nM.

As for `N#Cc1ccc(Cn2c3c(c(-c4ccc(F)cc4)c2-c2ccncc2)C(=O)NCC3)c(F)c1` [Example 51], the IC50 is under 30 nM.

Regarding `O=C1NCCc2c1c(-c1ccc(F)cc1)c(-c1ccncc1)n2Cc1ccc(C2CC2)cc1` [Example 52], the IC50 lay in the range of 31 to 100 nM.

As to `O=C1NCCc2c1c(-c1ccc(F)cc1)c(-c1ccncc1)n2Cc1ccc(C(F)(F)F)cc1C(F)(F)F` [Example 53], the IC50 is under 30 nM.

As for `N#Cc1ccc(Cn2c3c(c(-c4ccc(F)cc4)c2-c2ccncc2)C(=O)NCC3)nc1` [Example 54], the IC50 was 31 to 100 nM.

The same assay, now with this note: read-out: IC50 for Inhibition of RIPK3.
For `N#Cc1cc(F)ccc1Cn1c2c(c(-c3ccc(F)cc3)c1-c1ccnc(F)c1)C(=O)NCC2` [Example 18], the IC50 was in the range of 100 to 15000 nM.

`O=C1NCCc2c1c(-c1ccc(F)cc1)c(-c1ccncc1)n2CC1CCCNC1` (stereo not shown) [Example 32]: the IC50 was in the range of 100 to 15000 nM.

Turning to `Cc1ccc(Cn2c3c(c(-c4ccc(F)cc4)c2-c2ccncc2)C(=O)NCC3)cc1` [Example 45], the IC50 was 31 to 100 nM.
